Reference: patent publication US9441012B2, “Fluorinated epoxyketone-based compounds and uses thereof as proteasome inhibitors” (FLUORINOV PHARMA INC., priority 2012, dated 2016)

Key:
RXF 393 = test: NCI 60 human tumor cell line screen (SRB); assay type: cell-based; settings: RXF 393 (Renal Cancer); 48 h
HOP-62 = test: NCI 60 human tumor cell line screen (SRB); assay type: cell-based; settings: HOP-62 (Non-Small Cell Lung Cancer); 48 h
MOLT-4 = test: NCI 60 human tumor cell line screen (SRB); assay type: cell-based; settings: MOLT-4 (Leukemia); 48 h
NCI-H522 = test: NCI 60 human tumor cell line screen (SRB); assay type: cell-based; settings: NCI-H522 (Non-Small Cell Lung Cancer); 48 h
[1] = test system: chymotrypsin-like (CT-L) proteasome activity, KMS-11; test: Proteasome enzymatic activity (tumor cell lysates); assay type: biochemical, human; settings: KMS-11 cell lysate; mean ± standard deviation
Procedure: (§1) Cells were harvested by centrifugation at 1,200 rpm at room temperature. Cell pellets were washed with PBS and lysed with assay lysis buffer (50 mM HEPES (N-2-hydroxyethylpiperazine-N′-2-ethanesulfonic acid), pH 7.5; 150 mM NaCl; 1% Triton X-100; 2 mM ATP). Cell lysates were incubated on ice for 30 minutes, mixed by vortex every 5 minutes, and then centrifuged at 12,000 g for 10 minutes. The supernatant was transferred to a 96-well plate. For each assay, 10 μg of total protein were incubated for 1 hour at 37° C. with increasing concentrations (1 nM to 10 μM) of test compound diluted in assay buffer (50 mM Tris-HCl (tris(hydroxymethyl)aminomethane-HCl), pH 7.5; 150 mM NaCl). DMSO alone was used as a control in every assay plate. After incubation, a specific fluorogenic proteasome substrate was added to each assay reaction at a final concentration of 40 μM in a total volume of 100 μL. N-Succinyl-Leu-Leu-Val-Tyr-7-amino-4-methylcoumarin (Suc-Leu-Leu-Val-Tyr-AMC) was used for measuring chymotrypsin-like (CT-L) activity, t-butoxycarbonyl-Leu-Arg-Arg-7-amino-4-methylcoumarin (Boc-Leu-Arg-Arg-AMC) for trypsin-like (T-L) activity, and benzyloxycarbonyl-L-leucyl-L-leucyl-L-glutamyl-7-amino-4-methylcoumarin (Z-Leu-Leu-Glu-AMC) for caspase-like (C-L) activity. The excitation wavelength was set at 360 nm and the fluorescence emission wavelength of AMC was detected at 460 nm. The fluorescence of free AMC released during the enzymatic reaction was measured with a SpectraMax M5 fluorescent spectrophotometric plate reader (Molecular Devices, Sunnyvale, Calif.). AMC release rate was measured at 37° C. in a kinetic mode, recording every 5 minutes for 30 minutes. Experiments were performed in triplicate and repeated at least twice.
(§2) Table 9 summarizes data obtained for representative compounds of Formula I for cell viability and CT-L proteasome activity using OCI-AML-2 and KMS-11 cell lines.

[2] = test system: chymotrypsin-like (CT-L) proteasome activity, OCI-AML-2; test: Proteasome enzymatic activity (tumor cell lysates); assay type: biochemical, human; settings: OCI-AML-2 cell lysate; mean ± standard deviation
Procedure: as §1, §2

[3] = biological target: T1, Caspase-like (C-L) proteasome activity (Mus musculus, UniProt Q60692); test: Proteasome subunit activity in murine red blood cells after oral administration; assay type: in vivo, NOD/SCID mice; settings: oral gavage, Example 1 50 mg/kg, Example 26 60 mg/kg
T1 construct: RBCs were lysed with assay lysis buffer and incubated on ice for 30 minutes; from tissue; host or cells: red blood cells of NOD/SCID mice after oral dosing
T1 sequence (Q60692 1-238): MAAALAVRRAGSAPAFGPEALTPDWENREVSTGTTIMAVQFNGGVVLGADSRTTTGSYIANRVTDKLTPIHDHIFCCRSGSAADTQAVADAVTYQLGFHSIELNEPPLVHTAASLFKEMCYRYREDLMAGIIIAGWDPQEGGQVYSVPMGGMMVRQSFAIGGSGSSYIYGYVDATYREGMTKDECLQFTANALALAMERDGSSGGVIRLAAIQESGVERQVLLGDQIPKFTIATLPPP
Procedure: as §1
(§3) All mouse experiments were performed in accordance with approval from the Ontario Cancer Institute institutional animal review board. Five- to six-week-old male non-obese diabetic/severe combined immunodeficient (NOD/SCID) mice were grouped randomly (n=3 mice per group). Mice were administered vehicle (5% DMSO, 20% Cremophor) or compounds of Formula I at different doses either intravenously or by oral gavage, and venous blood samples (20-50 μL) were collected from each mouse over 24 hours. Blood samples were mixed with heparin (APP Pharmaceuticals; Schaumburg, Ill.) in 0.5 mL tubes in accordance with the manufacturer's instructions. After centrifugal separation at 3,000 g for 10 minutes, red blood cells (RBCs) in the bottom layer were transferred into a new tube and stored at −70° C. until use. RBCs were lysed with assay lysis buffer and incubated on ice for 30 minutes, mixing by vortex every 5 minutes, and then centrifuged at 12,000 g for 10 minutes. The supernatant was transferred to a 96-well plate and proteasome activity was measured as described in above for tumor cell lysates.
(§4) Proteasome subunit activity (Chymotrypsin-like, Trypsin-like, Caspase-like, CT-L, T-L, C-L, respectively) were monitored over the course of 24 hrs following […] administration of representative compounds of Formula I. NOD/SCID mice were treated with the compound from Example 1 (50 mg/kg by oral gavage) and the compound from Example 26 (60 mg/kg by oral gavage) or vehicle control for up to 24 hours, as described above.
(§5) Table 10 summarizes the data for the representative compounds of Formula (I); the compounds of Examples 1 and 26.

[4] = biological target: T2, chymotrypsin-like (CT-L) proteasome activity (Mus musculus, UniProt O55234); test: as above; assay type: in vivo, NOD/SCID mice; settings: oral gavage, Example 1 50 mg/kg, Example 26 60 mg/kg
T2 construct: RBCs were lysed with assay lysis buffer and incubated on ice for 30 minutes; from tissue; host or cells: red blood cells of NOD/SCID mice after oral dosing
T2 sequence (O55234 60-264): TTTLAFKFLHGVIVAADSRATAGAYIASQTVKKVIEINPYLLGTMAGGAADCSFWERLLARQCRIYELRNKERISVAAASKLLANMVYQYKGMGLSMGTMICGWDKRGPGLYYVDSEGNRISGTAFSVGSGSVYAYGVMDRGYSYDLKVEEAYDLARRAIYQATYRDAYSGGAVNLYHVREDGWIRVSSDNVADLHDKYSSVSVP
Procedure: as §1, §3, §4, §5

CCRF-CEM = test: NCI 60 human tumor cell line screen (SRB); assay type: cell-based; settings: CCRF-CEM (Leukemia); 48 h
T-47D = test: NCI 60 human tumor cell line screen (SRB); assay type: cell-based; settings: T-47D (Breast Cancer); 48 h
SK-MEL-2 = test: NCI 60 human tumor cell line screen (SRB); assay type: cell-based; settings: SK-MEL-2 (Melanoma); 48 h

SMILES | Log10GI50 (RXF 393) | Log10LC50 (RXF 393) | Log10TGI50 (RXF 393) | Log10GI50 (HOP-62) | Log10LC50 (HOP-62) | Log10TGI50 (HOP-62) | Log10GI50 (MOLT-4) | Log10LC50 (MOLT-4) | Log10TGI50 (MOLT-4) | Log10GI50 (NCI-H522) | Log10LC50 (NCI-H522) | Log10TGI50 (NCI-H522) | IC50 [1] | IC50 [2] | Caspase-like (C-L) mean residual activity relative to vehicle treated controls ([3]; 30 min) | Log10GI50 (T-47D) | Log10TGI50 (T-47D) | Log10GI50 (SK-MEL-2) | Log10LC50 (SK-MEL-2) | Log10TGI50 (SK-MEL-2) | also measured
Cc1ncc(C(=O)N[C@@H](COC(F)F)C(=O)N[C@@H](COC(F)F)C(=O)N[C@@H](Cc2ccccc2)C(=O)[C@@]2(C)CO2)s1 [Example 1, 2-methyl-thiazole-5-carboxylic acid ((S)-1-{(S)-1-[(S)-1-benzyl-2-((R)-2-methyloxiranyl)-2-oxo-ethylcarbamoyl]-2-difluoromethoxyethylcarbamoyl}-2-difluoromethoxyethyl)-amide] | −6.79 | −6.02 | −6.41 | −6.41 | >−4.00 | >−4.00 | −7.37 | >−4.00 | >−4.00 | −6.86 | −4.15 | −6.15 | 0.0296 ± 0.00369 µM | 0.0392 ± 0.00212 µM | 100% | −6.59 | >−4.00 |  |  |  | Caspase-like (C-L) mean residual activity relative to vehicle treated controls ([3]; 24 hrs): 100%; Caspase-like (C-L) mean residual activity relative to vehicle treated controls ([3]; time 0): 100%; chymotrypsin-like (CT-L) mean residual activity relative to vehicle treated controls ([4]; 30 min): 27%; chymotrypsin-like (CT-L) mean residual activity relative to vehicle treated controls ([4]; 24 hours): 22%; chymotrypsin-like (CT-L) mean residual activity relative to vehicle treated controls ([4]; time 0): 100%; Log10GI50 (CCRF-CEM): −7.26; Log10LC50 (CCRF-CEM): >−4.00; Log10TGI50 (CCRF-CEM): >−4.00
CC(C)C[C@H](NC(=O)[C@H](Cc1ccccc1)NC(=O)[C@H](COC(F)F)NC(=O)CN1CCOCC1)C(=O)[C@@]1(C)CO1 [Example 25, (2S)-2-[[(2S)-3-(difluoromethoxy)-2-[(2-morpholinoacetyl)amino]propanoyl]amino]-N-[(1S)-3-methyl-1-[(2R)-2-methyloxirane-2-carbonyl]butyl]-3-phenyl-propanamide] | −7.64 | −6.70 | −7.25 | −7.75 | −7.09 | −7.42 | −7.69 | >−4.00 | −7.11 | −7.67 | >−4.00 | −7.19 |  |  |  | −7.78 | −7.46 | −7.54 | −5.46 | −7.03 | 
C[C@]1(C(=O)[C@H](Cc2ccccc2)NC(=O)[C@H](COC(F)F)NC(=O)[C@H](COC(F)F)NC(=O)CN2CCOCC2)CO1 [Example 26, (S)-N-{(S)-1-[(S)-1-Benzyl-2-((R)-2-methyl-oxiranyl)-2-oxo-ethylcarbamoyl]-2-difluoromethoxyethyl}-3-difluoromethoxy-2-(2-morpholin-4-yl-acetylamino)-propio-namide] | −7.64 | −6.70 | −7.25 | −7.75 | −7.09 | −7.42 | −7.69 | >−4.00 | −7.11 | −7.67 | >−4.00 | −7.19 | 0.174 ± 0.434 µM | 0.358 ± 0.177 µM | 100% | −7.78 | −7.46 | −7.54 | −5.46 | −7.03 | Caspase-like (C-L) mean residual activity relative to vehicle treated controls ([3]; 24 hrs): 100%; Caspase-like (C-L) mean residual activity relative to vehicle treated controls ([3]; time 0): 100%; chymotrypsin-like (CT-L) mean residual activity relative to vehicle treated controls ([4]; 30 min): 33%; chymotrypsin-like (CT-L) mean residual activity relative to vehicle treated controls ([4]; 24 hours): 27%; chymotrypsin-like (CT-L) mean residual activity relative to vehicle treated controls ([4]; time 0): 100%
C[C@]1(C(=O)[C@H](Cc2ccccc2)NC(=O)[C@H](Cc2ccccc2)NC(=O)[C@H](COC(F)F)NC(=O)CN2CCOCC2)CO1 [Example 29] | −7.20 | −6.31 | −6.70 | −7.31 | −4.32 | −6.53 | −7.54 | >−4.00 | −7.05 | −6.90 | >−4.00 | −6.17 | 0.135 ± 0.0123 µM | 0.132 ± 0.0104 µM |  | −7.16 | −6.62 | −7.19 | >−4.00 | −6.02 | Log10GI50 (CCRF-CEM): −7.62; Log10LC50 (CCRF-CEM): >−4.00; Log10TGI50 (CCRF-CEM): >−4.00
